In patent publication US20200378993A1, “MEDICAL USES OF APOLIPOPROTEIN A AND ACTIVATORS THEREOF” (FUNDACIÓN IMDEA ALIMENTACIÓN, priority 2017, published 2020):

Assays:
Format in all cases: cell-based, human
caveolin-1 = assay: Caveolin-1 immunodetection by Western blot; conditions: RVX-208 (30 μM) versus DMSO carrier
Procedure: FIG. 7. A) Proliferation curve in a viability assay carried out by means of XCELLigence technology. Growth of DLD1 cells treated with DMSO as the drug carrier and with Rvx-208 (30 μM). The significant differences existing in the slope of the graph, and therefore in the growth dynamics of the treated cells are shown in the right panel (****p-value<0.0001). B) Migration and invasion assays. The method followed was the same as the one described in FIG. 2 (*p-value=0.0407; ****p-value<0.0001). C) Expression levels of proteins E-cadherin and Vimentin in the presence and absence of Rvx-208. Analysis performed by means of quantitative PCR. The relative expression levels normalized with respect to the untreated control are shown. D) ABCA1, ApoA1, caveolin-1, and α-tubulin immunodetection by means of Western blot. α-tubulin acts as load control. The results of the cells treated with Rvx-208 (30 μM) or with the DMSO carrier are shown. E) Cholesterol flux in cells treated with Rvx-208. […]
(§1) The inventors were able to confirm said results based on the treatment of DLD1 cells expressing ABCA1 with RVX-208 under the conditions already described in detail in Example 3. […] The levels of caveolin-1, a protein whose increased levels have been associated with increases in cell migration and invasion, were also analyzed in this experiment.

cholesterol flux = assay: Cholesterol flux in treated cells; conditions: treatment with Rvx-208
Procedure: FIG. 7. A) Proliferation curve in a viability assay carried out by means of XCELLigence technology. Growth of DLD1 cells treated with DMSO as the drug carrier and with Rvx-208 (30 μM). The significant differences existing in the slope of the graph, and therefore in the growth dynamics of the treated cells are shown in the right panel (****p-value<0.0001). B) Migration and invasion assays. The method followed was the same as the one described in FIG. 2 (*p-value=0.0407; ****p-value<0.0001). C) Expression levels of proteins E-cadherin and Vimentin in the presence and absence of Rvx-208. Analysis performed by means of quantitative PCR. The relative expression levels normalized with respect to the untreated control are shown. D) ABCA1, ApoA1, caveolin-1, and α-tubulin immunodetection by means of Western blot. α-tubulin acts as load control. The results of the cells treated with Rvx-208 (30 μM) or with the DMSO carrier are shown. E) Cholesterol flux in cells treated with Rvx-208. The inventors were able to confirm said results based on the treatment of DLD1 cells expressing ABCA1 with RVX-208 under the conditions already described in detail in Example 3. […] The levels of caveolin-1, a protein whose increased levels have been associated with increases in cell migration and invasion, were also analyzed in this experiment.

DLD1_ABCA1 cells [1] = assay: Cell viability and proliferation assay (XCELLigence); conditions: RVX-208 30 μm 72 hours then 15 μM; DLD1 cells overexpressing ABCA1
Procedure: (§2) FIG. 6. A) Proliferation curve in a viability assay carried out by means of XCELLigence technology. The results for the stable cell line overexpressing ABCA1 in the absence and presence of ApoA1 are shown. The cells were treated for 72 hours before the experiment with 40 μg/ml of ApoA1 and with a concentration of 20 μg/ml during acquisition. B) Migration and invasion assays. The method followed was the same as the one described in FIG. 1. (**p-value=0.003; ****p-value<0.0001). C) ABCA1 messenger RNA level (left panel) and ABCA1 protein level (right panel) in the presence and absence of treatment with ApoA1. Results are shown both for the control cells and for those cells overexpressing the transporter.
Cell viability and proliferation assays were carried out by means of XCELLigence technology (ACEA Biosciences, Inc.) following the manufacturer's indications. Migration and invasion assays were carried out in Corning® BioCoat™ Control plates (#354578) and Corning® BioCoat™ Matrigel plates (#354480), respectively, following the manufacturer's indications. […]
as §1

DLD1_ABCA1 cells [2] = assay: Invasion assay (Corning BioCoat Matrigel plates); conditions: Rvx-208 with ApoA1 silenced by shApoA1; cells with high ABCA1 levels
Procedure: as §2, with “Results are shown both for the control cells and for those cells overexpressing the transporter.” left out
as §1
For the purpose of confirming that the effects of RVX-208 in cell phenotype recovery were due to the increase in ApoA-1 expression, the inventors inhibited the expression of said protein by means of transfection of a complementary small RNA, ShApoA1 (FIG. 9). […] Cell viability and proliferation in DLD1 cells (D_NoORF) and D1D1 cell lines expressing increased ApoA1 levels (D_ApoA1 ) were analyzed with the xCELLigence system.

DLD1 cells = assay: Invasion assay (Corning BioCoat Matrigel plates)
Procedure: Cell viability and proliferation assays were carried out by means of XCELLigence technology (ACEA Biosciences, Inc.) following the manufacturer's indications. Migration and invasion assays were carried out in Corning® BioCoat™ Control plates (#354578) and Corning® BioCoat™ Matrigel plates (#354480), respectively, following the manufacturer's indications. For the rescue assays, the cells were treated for 72 hours with 30 μM apabetalone (RVX-208; Biovision). Antibodies: ABCA1 (Ab18180, Abcam. 1:500); caveolin-1 (Ab2910, Abcam. 1:1000); α-tubulin (T9026, Sigma 1:1000). The DLD1 cells correspond to a human colorectal cancer-derived adherent epithelial cell line (ATCC® CCL-221™). The stable cell lines capable of overexpressing ABCA1 were obtained by means of transduction with genetically modified lentivirus.
Following the same treatment regimen, the inventors carried out migration and invasion assays.
The same assays were repeated by replacing ApoA1 with a treatment with RVX-208. In this case, DLD1 cells were pre-treated for 72 hours before the start of the experiment with RVX-208 at a concentration of 30 μm and were subjected to a treatment with 15 μM of RVX-208 during the development of the experiments.
For the purpose of confirming that the effects of RVX-208 in cell phenotype recovery were due to the increase in ApoA-1 expression, the inventors inhibited the expression of said protein by means of transfection of a complementary small RNA, ShApoA1 (FIG. 9). Twenty-four hours after transfection with ShApoA1 expression vector, the inventors started treatment with 30 μM of RVX-208. Cell viability and proliferation in DLD1 cells (D_NoORF) and D1D1 cell lines expressing increased ApoA1 levels (D_ApoA1 ) were analyzed with the xCELLigence system.

## COc1cc(OC)c2c(=O)[nH]c(-c3cc(C)c(OCCO)c(C)c3)nc2c1 [RVX-208, 2-(4-(2-hydroxyethoxy)-3,5-dimethylphenyl)-5,7-dimethoxyquinazolin-4(3H)-one]
caveolin-1
  caveolin-1 protein levels: capable of reducing the levels of said protein
Cholesterol flux; cells overexpressing ABCA1
  cholesterol flux: decreases significantly
Cholesterol flux; control cells
  cholesterol flux: decreases significantly
DLD1_ABCA1 cells [1]
  proliferative capacity: significant decrease in proliferative capacity
DLD1_ABCA1 cells [2]
  effectiveness of treatment in terms of a decrease in cell invasion capacities: reduces the effectiveness of treatment
DLD1 cells; RVX-208 30 μm 72 hours then 15 μM, DLD1 cells
  invasive capacity: significant decreases the migratory and invasive capacity
DLD1 cells; Rvx-208 with ApoA1 silenced by shApoA1, control cells
  effectiveness of treatment in terms of a decrease in cell invasion capacities: reduces the effectiveness of treatment
